Laboratory results reported in patent US8563543B2, “Iminothiadiazine dioxide compounds as bace inhibitors, compositions, and their use” (Merck Sharp & Dohme Corp., priority 2009, dated 2013).
Where “and” joins values, the source holds several entries; their conditions need not be identical. Identical values can stand only once.

Tests used:
[1] = Solution stability (hydrolysis) by LC/MS in pH 7.4 phosphate buffer; format: physicochemical; settings: for hydrolysis: 25° C. over 6 days; for hydrolysis / hydrolysis product share of the sample: pH 7.4
Description: The following procedures were used to measure solution stability, and to compare the solution stability of the compounds of the invention to that of otherwise structurally identical iminopyrimidinones.
Stock solutions of the tested compounds were prepared by dissolving about 3 mg of each compound in 3 mL of acetonitrile. Standards for test compounds were prepared by diluting 1 mL of the stock solution with an additional 4 mL of acetonitrile. These standards were stored at 4° C. Samples were prepared by diluting 1 mL of the stock solution with 4 mL of 50 mM pH 7.4 phosphate buffer. These samples were stored at the appropriate temperature in the absence of light. Standards and samples were analyzed by LC/MS initially and at day 1, day 4, and day 6. • HPLC Conditions: • Mobile phase A: 10 mM pH 5 ammonium acetate buffer:methanol (90:10) • Mobile phase B: 10 mM pH 5 ammonium acetate buffer:methanol (10:90) • Column: Zorbax SB-Phenyl 4.6×50 mm, 1.8 μm • Column temperature: 40° C. • Flow: 0.8 mL/min. • Gradient:
• Detectors: UV at 220 nm and 236 nm • MS, ES ionization, positive mode, for identification only at final time point. • The terms reported in the tables below have the following meanings: • Area % is the integration of peak from HPLC as reported by Waters Empower II software. • RRT is the relative retention time of new product compared to the standard of the test compound. • Formula for RRT is:
[formula] • M+1 is the mass observed including protonation (+1 mass unit). • ND stands for no peak detected by the UV detector. • * stands for no ion detected by the mass spectrometer.

[2] = target: T1, purified human autoBACE-2 (Homo sapiens, UniProt Q9Y5Z0); assay: BACE-2 time-resolved endpoint proteolysis assay (BACE-HTRF assay); format: biochemical; settings: calculated from IC50 using the Cheng-Prusoff equation
T1 sequence (Q9Y5Z0 63-473 limits assumed): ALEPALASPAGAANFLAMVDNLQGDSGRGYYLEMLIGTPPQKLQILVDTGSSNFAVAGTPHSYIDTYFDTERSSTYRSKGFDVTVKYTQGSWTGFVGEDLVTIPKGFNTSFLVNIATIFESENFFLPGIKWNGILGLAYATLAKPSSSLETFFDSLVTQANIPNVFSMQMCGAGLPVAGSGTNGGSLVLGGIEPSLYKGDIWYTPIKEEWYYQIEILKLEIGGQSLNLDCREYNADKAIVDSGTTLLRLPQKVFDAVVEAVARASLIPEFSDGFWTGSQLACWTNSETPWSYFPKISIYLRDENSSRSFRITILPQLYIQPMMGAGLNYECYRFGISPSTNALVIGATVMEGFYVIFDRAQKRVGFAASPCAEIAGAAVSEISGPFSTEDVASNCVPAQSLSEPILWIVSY
Description: Inhibitor IC50 values at purified human autoBACE-2 were determined in a time-resolved endpoint proteolysis assay that measures hydrolysis of the QSY7-[…]-Eu-amide FRET peptide substrate (BACE-HTRF assay). RACE-mediated hydrolysis of this peptide results in an increase in relative fluorescence (RFU) at 620 nm after excitation with 320 nm light. Inhibitor compounds, prepared at 3× the desired final concentration in 1×BACE assay buffer (20 mM sodium acetate pH 5.0, 10% glycerol, 0.1% Brij-35) supplemented with 7.5% DMSO were pre-incubated with an equal volume of autoBACE-2 enzyme diluted in 1×RACE assay buffer (final enzyme concentration 1 nM) in black 384-well NUNC plates for 30 minutes at 30° C. […] DMSO was present at 5% final concentration in the assay. Following laser excitation of sample wells at 320 nm, the fluorescence signal at 620 nm was collected for 400 ms following a 50 μs delay on a RUBYstar HTRF plate reader (BMG Labtechnologies). Raw RFU data was normalized to maximum (1.0 nM RACE/DMSO) and minimum (no enzyme/DMSO)RFU values. IC50 values were determined by nonlinear regression analysis (sigmoidal dose response, variable slope) of percent inhibition data with minimum and maximum values set to 0 and 100 percent respectively. Similar IC50 values were obtained when using raw RFU data. The Ki values were calculated from the IC50 using the Cheng-Prusoff equation.

[3] = target: soluble human BACE1 catalytic domain (Homo sapiens, UniProt P56817); assay: BACE1 HTRF FRET assay; format: biochemical; settings: calculated from IC50 using the Cheng-Prusoff equation
From the text: Dimethyl Sulfoxide (DMSO)
Recombinant human soluble BACE1 catalytic domain (>95% pure)
APP Swedish mutant peptide substrate (QSY7-APP^swe-Eu): QSY7-[…]-Europium-amide
A homogeneous time-resolved FRET assay was used to determine IC50 values for inhibitors of the soluble human BACE1 catalytic domain. This assay monitored the increase of 620 nm fluorescence that resulted from BACE1 cleavage of an APPswedish APP^swe mutant peptide FRET substrate (QSY7-[…]-Europium-amide). This substrate contained an N-terminal QSY7 moiety that served as a quencher of the C-terminal Europium fluorophore (620 nm Em). In the absence of enzyme activity, 620 nm fluorescence was low in the assay and increased linearly over 3 hours in the presence of uninhibited BACE1 enzyme. Inhibition of BACE1 cleavage of the QSY7-APP^swe-Eu substrate by inhibitors was manifested as a suppression of 620 nm fluorescence.
Varying concentrations of inhibitors at 3× the final desired concentration in a volume of 10 ul were preincubated with purified human BACE1 catalytic domain (3 nM in 10 μl) for 30 minutes at 30° C. in reaction buffer containing 20 mM Na-Acetate pH 5.0, 10% glycerol, 0.1% Brij-35 and 7.5% DSMO. […] The 620 nm fluorescence was then read on a Rubystar HTRF plate reader (BMG Labtechnologies) using a 50 μs delay followed by a 400 millisecond acquisition time window. […]

[4] = Sample at pH 7.4, 25° C., Day 1
[5] = Sample at pH 7.4, 25° C., Day 4
[6] = Sample at pH 7.4, 25° C., Day 6
[7] = Sample at pH 7.4, 25° C., Initial
[8] = Sample initial, 40° C. and 60° C. studies
[9] = Standard in acetonitrile, stored at 4° C., Day 1
[10] = Standard in acetonitrile, stored at 4° C., Day 4
[11] = Standard in acetonitrile, stored at 4° C., Day 6
[12] = Standard in acetonitrile, stored at 4° C., Initial

Sequence of soluble human BACE1 catalytic domain (P56817 75-416 limits assumed): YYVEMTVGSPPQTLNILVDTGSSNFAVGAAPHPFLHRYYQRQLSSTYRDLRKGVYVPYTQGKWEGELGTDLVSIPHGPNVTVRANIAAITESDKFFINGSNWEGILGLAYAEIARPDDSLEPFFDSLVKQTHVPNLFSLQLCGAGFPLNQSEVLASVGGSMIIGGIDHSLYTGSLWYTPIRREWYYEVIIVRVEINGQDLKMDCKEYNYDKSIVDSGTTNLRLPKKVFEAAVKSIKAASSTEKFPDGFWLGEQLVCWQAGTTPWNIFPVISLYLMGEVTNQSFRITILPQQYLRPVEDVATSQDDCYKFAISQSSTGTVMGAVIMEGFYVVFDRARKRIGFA

SMILES | hydrolysis [1] | hydrolysis product share of the sample ([1]; 40° C. over 4 days) | hydrolysis product share of the sample ([1]; 60° C.) | Area %, Day 1 (parent peak) [1, 4] [%] | Area %, Day 4 (parent peak) [1, 5] [%] | Area %, Day 6 (parent peak) [1, 6] [%] | Area %, Initial (parent peak) [1, 7] [%] | Area %, Initial (parent peak) [1, 8] [%] | Area %, Day 1 (parent peak) [1, 9] | Area %, Day 4 (parent peak) [1, 10] [%] | Area %, Day 6 (parent peak) [1, 11] [%] | Area %, Initial (parent peak) [1, 12] | Area %, Day 1 (parent peak) ([1]; pH 7.4 at 40° C., Day 1) [%] | Area %, Day 4 (parent peak) ([1]; pH 7.4 at 40° C., Day 4) [%] | also measured
CN1C(=N)N[C@](C)(c2ccc(F)cc2F)[C@@H](c2ccc(C(F)(F)F)cc2)C1=O [Compound Y] | 3.36% | 31.4% | 28.5% | 100.0 | 100.0 | 89.79 | 100.0 | 98.2 | 100.0% and 99.4% | 100.0 | 100.0 | 100.0% and 98.8% | 86.3 | 55.8 | Area %, Day 6 (hydrolysis product peak) [1, 6]: 3.36%; Area %, Initial (hydrolysis product peak) [1, 8]: 0.7%; Area %, Day 1 (hydrolysis product peak) ([1]; pH 7.4 at 40° C., Day 1): 10.5%; Area %, Day 4 (hydrolysis product peak) ([1]; pH 7.4 at 40° C., Day 4): 31.4%; Area %, Day 4 (unidentified peak, RRT 0.87) ([1]; pH 7.4 at 40° C., Day 4, no ion detected by the mass spectrometer): 5.8%; Area %, Day 1 (hydrolysis product peak) ([1]; pH 7.4 at 60° C., Day 1): 28.5%; Area %, Day 1 (parent peak) ([1]; pH 7.4 at 60° C., Day 1): 56.7%; Area %, Day 1 (unidentified peak, RRT 0.87) ([1]; pH 7.4 at 60° C., Day 1, no ion detected by the mass spectrometer): 6.6%
CN1C(=N)N[C@](C)(c2ccc(F)cc2F)[C@@H](c2ccc(C(F)(F)F)cc2)S1(=O)=O [Example 3] | no hydrolysis | no hydrolysis | no hydrolysis | 100.0 | 100.0 | 100.0 | 100.0 | 100.0 | 100.0% | 100.0 | 100.0 | 100.0% | 100.0 | 100.0 | Area %, Day 4 (parent peak) ([1]; pH 7.4 at 60° C., Day 4): 87.3%; Area %, Day 4 (unidentified peak, RRT 0.52) ([1]; pH 7.4 at 60° C., Day 4, no ion detected by the mass spectrometer): 12.7%; Ki [2]: ~11 nM; Ki [3]: ~9 nM
